In US20110081317A1, “Enhancing Gene Transfer” (UNIVERSITY OF ROCHESTER, priority 2007, published 2011):
Peptide text beside a SMILES is read from it. * marks the point of attachment. Cbz = O=C(OCc1ccccc1)*

Assays:
HEK 293 cells [1] = test: Phage-mediated luciferase gene transfer in HEK 293 cells; format: cell-based, Human; conditions: for effect on phage-mediated luciferase gene transfer: MOI 1×10^6, omeprazole 50 μM, brefeldin A 500 ng/ml, chloroquine 50 μM for 24 h
Experimental: (§1) Preparation of bacteriophage lambda lysogens and vector production. The λD1180(luc) lysogen (Dam15 del EcoRI-Sac1 clts857 nin5 Sam100) has been described (Eguchi et al., J. Biol. Chem. 276(28):26204-10, 2001). The λD1180(luc) phage contains a firefly luciferase reporter gene under the regulatory control of the human cytomegalovirus immediate-early promoter. λD1180(luc) phage particles were prepared from E. coli lysogens that were stably transformed with either a plasmid encoding wildtype gpD or plasmids encoding gpD fusion proteins of interest, as described (Zanghi et al., Nucleic Acids Res. 33(18):e160, 2005). λ(luc) particles were purified by CsCl density gradient centrifugation and titered on LE392 E. coli cells (Zanghi et al., Nucleic Acids Res. 33(18):e160,2005).
(§2) Cells lines and phage transduction. Human embryonic kidney (HEK) 293 cells and COS simian kidney cells were obtained from American Type Culture Collection (ATCC), P.O. Box 1549, Manassas, Va. 20108. Cells were cultured in Dulbecco's Modified Eagle's Medium (DMEM) containing 10% fetal bovine serum, plus 2 mM L-glutamine and 100 U/ml penicillin, 100 μg/ml streptomycin. Twenty-four to forty-eight (24-48) hours following addition of phage to cells, cultures were washed with phosphate buffered saline (PBS) and lysed in passive lysis buffer (Promega Corporation, Madison, Wis.). Protein content in the lysates was quantitated by Bradford assay, and equal amounts of lysate (normalized in terms of protein content) were used in luciferase assays. Luciferase assay data are reported in relative light units.
(§3) To analyze the function of the proteasome in phage-mediated gene transfer, HEK 293A cells and COS-7 cells were incubated with luciferase encoding phage particles, in the presence or absence of three different pharmacologic inhibitors of proteasome activity (lactacystin, bortezomib and MG132). Lactacystin is an irreversible inhibitor of the 20S-proteasome, while bortezomib and MG132 are reversible inhibitors of the 26S-proteasome complex. […] The latter phage were generated by producing genetically gpD-deficient lambda phage particles in E. coli host cells that expressed a recombinant derivative of gpD, fused to a truncated PEST-like motif derived from seeligeriolysin O, a cholesterol-dependent cytolysin of Listeria seeligeri.

COS cells = test: Phage-mediated luciferase gene transfer in COS cells; format: cell-based, simian; conditions: luciferase at 48 h; for effect on phage-mediated luciferase gene transfer: MOI 1×10^6, omeprazole 50 μM, brefeldin A 500 ng/ml, chloroquine 70 μM for 24 h
Experimental: as §1, §2, §3

HEK 293 cells [2] = test: Measurement of endosomal pH by flow cytometry of fluorescein/tetramethylrhodamine dextran; format: cell-based, Human; conditions: 500 nM bafilomycin A1
Experimental: Measurement of endosomal pH. 5×10^5 HEK293 cells were preincubated in DMEM medium with 10% FBS (DMEM-10) overnight, after which the medium was replaced by DMEM-10 containing 2 mg/ml 70kD fluorescein and tetramethylrhodamine dextran (Invitrogen, Carlsbad, Calif.) plus either 100 nM or 500 nM bafilomycin A1 (BAF) or 2 mg/mL of nigericin (positive control) or no drug (negative control). One and a half (1.5) hours later, cells were washed in warm PBS and fresh media was added (with or without BAF or nigericin, as appropriate). Two (2) hours thereafter, cells were again washed with warm PBS, detached by trypsinization, washed with fresh media (with or without BAF or nigericin, as appropriate), and pelleted by centrifugation (5 minutes, 1000 g at 4° C.). Fluorescein
(F) and tetramethylrhodamine (T) fluorescence were quantitated by flow cytometric analysis using a FACS Calibur (Becton Dickinson). A standard curve was generated by suspending aliquots of cells (in the presence of 2 mg/ml of nigericin) in PBS at pH 4, 4.4, 5, 5.4, 6 and 6.4. The ratio of T/F fluorescence was then plotted against pH, to generate a standard curve; data from the bafilomycin-treated and non-treated cells were then extrapolated to this curve, in order to calculate endosomal pH.

HEK 293 cells [3] = test: Plasmid (pCMV:luc) luciferase expression in transiently transfected HEK 293 cells; format: cell-based, Human; conditions: pCMV:luc transfected HEK 293; bortezomib 10 nM for 16 h; luciferase at 48 h
Experimental: Transient transfection of cells with plasmid DNA. 1×10^4 HEK 293 cells were seeded into 96-well plates and incubated overnight. Cells were then transfected with 50 ng of a mammalian expression plasmid encoding the luciferase reporter gene (pgWiz-CMV luciferase) using lipofectamine-2000 reagent in the presence or absence of lOnM bortezomib. Four (4) hours thereafter, media were removed and fresh media were added (with or without bortezomib). Cells were incubated for an additional 12 hours, and media were again replaced (this time without any exogenous drug). Forty-eight (48) hours after transfection of the cells, they were washed with PBS, incubated in 1× passive lysis buffer (Promega Corporation, Madison, Wis.) and lyzed using two freeze-thaw cycles. Protein content within the lysates was then quantitated using Bradford assay and equal amounts of lysate (normalized in terms of protein content) were used in luciferase assays. Luciferase assay data are reported in relative light units.
Therefore, a control experiment was performed to determine whether proteasome inhibition exerted an effect on luciferase expression from a non-phage based gene transfer agent containing the same luciferase expression cassette present in λD1180(luc). […]

HEK 293 cells [4] = test: Quantitative analysis of intranuclear lambda phage genomic DNA (qPCR); format: cell-based, Human; conditions: Tpell phage, MOI 1×10^6, bortezomib 10 nM for 16 h, harvest at 24 h, p<0.01 vs untreated
Experimental: Quantitative analysis of intranuclear lambda phage genomic DNA. HEK 293 cells were incubated with phage lambda at a MOI of 10^6 in the presence or absence of 10 nM bortezomib. Sixteen (16) hours later, media was replaced with bortezomib-free DMEM (10% FBS); twenty-four (24) hours thereafter, cells were washed with cold PBS and non-internalized phage particles were then removed by performing 3 cold acid washes (0.2M CH3COOH, 0.5M NaCl, pH2.5), as described (Lankes et al., J. Appl. Microbiol 102(5):1337-49, 2007). […] Phage genomic DNA in the nuclear lysate was quantitated by DNA qPCR analysis on a BioRad iCycler using a TaqMan® (Roche Molecular Systems, Inc., Pleasanton, Calif.) primer/probe set specific for the lambda phage integrase gene (Probe: FAM-5′-[sequence]-3′-TAMRA (SEQ ID NO:2), Forward-5′-[sequence]-3′ (SEQ ID NO:3), Reverse-5′-[sequence]-3′ (SEQ ID NO:4)). Cellular chromosomal DNA in the nuclear lysate was also quantitated by DNA qPCR analysis using a TaqMan® (Roche Molecular Systems, Inc., Pleasanton, Calif.) primer/probe set specific for the 18S ribosomal RNA gene (Probe: FAM-5′-[sequence]-3′-TAMRA (SEQ ID NO:5), Forward-5′-[sequence]-3′ (SEQ ID NO:6), Reverse-5′-[sequence]-3′ (SEQ ID NO:7)). […]

HEK 293 cells [5] = test: Cytotoxicity / tolerability of proteasome inhibitors in HEK 293 cells; format: cell-based, Human
[6] = tested on: COS cells stably transfected with Fc receptor (CD64) and its associated gamma chain; test: Plasmid/Lipofectamine-mediated luciferase gene transfer in CD64-expressing COS cells; format: cell-based; conditions: 30 min pretreatment, luciferase at 48 h; for increase in plasmid gene transfer efficiency: nocodazole 5 μM or paclitaxel 20 μg/ml
Experimental: FIG. 12 is a graph showing plasmid mediated luciferase gene transfer in cells treated with a microtubule inhibitor. A DNA plasmid encoding a luciferase reporter gene was mixed with Lipofectamine. This was then added to COS cells that had been stably transfected with expression plasmids encoding a cellular Fc receptor (CD64) and its associated gamma chain, in the presence or absence (DNA only and DNA+DMSO) of latrunculin A (120 nM), paclitaxel (20 μg/ml), or nocodazole (5 μM). Cells were harvested 48 hours later and lysed, and luciferase activity measured.
A DNA plasmid encoding a luciferase reporter gene was mixed with Lipofectamine™ (Invitrogen, Carlsbad, Calif.). This was then added to COS cells that had been stably transfected expression plasmids encoding a cellular Fc receptor
(CD64) and its associated gamma chain. DNA was added to cells that had been pretreated for 30 minutes in the presence or absence of the microtubule inhibitors, nocodazole (5 μM) or paclitaxel (20 μg/ml), or the actin polymerization inhibitor, latrunculin A (120 nM). Cells were harvested 48 hours after transfection and lysed, and luciferase activity was measured.

COS-7 cells = test: Adenovirus vector (AdLucGFP) mediated luciferase gene transfer in COS-7 cells; format: cell-based; conditions: AdLucGFP MOI 10, latrunculin A 120 nM added 30 min before transduction
Experimental: FIG. 13 is a graph showing, in cells treated with paclitaxel, nocodazole, or latrunculin A, adenoviral-mediated luciferase gene transfer. Latrunculin A ([…]), paclitaxel (20 μg/ml), or nocodazole (5 μM) was added to cells 30 minutes prior to transduction of COS-7 cells with a luciferase-expressing adenovirus vector (AdLucGFP) at a multiplicity of infection (MOI) of 10. Media were changed 24-hours post-transfection, and cells were lysed in Passive Lysis Buffer 24 hours later. Protein quantities were standardized and luciferase activity was measured in the cell lysates. The mean control level is shown as Ad only.
Latrunculin A (120 nM), paclitaxel (Taxol® (Bristol Meyers Squibb, Princeton, N.J.), 20 μg/ml), or nocodazole (5 μM) was added to cells 30 minutes prior to transduction of COS-7 cells with a luciferase-expressing adenovirus vector (AdLucGFP) at a multiplicity of infection (MOI) of 10. Media were changed 24-hours post-transfection, and cells were lysed in Passive Lysis Buffer 24 hours later. Protein quantities were standardized and luciferase activity was measured in the cell lysates.

[7] = Tpell phage, luciferase at 48 h

## CC(C)C[C@@H](C=O)NC(=O)[C@H](CC(C)C)NC(=O)[C@H](CC(C)C)NC(=O)OCc1ccccc1 [MG132] (Cbz-Leu-Leu-Leu-aldehyde)
HEK 293 cells [1]; WT and Tpell phage, MOI 1×10^6, MG132 1 μM for 16 h, luciferase at 48 h, vs untreated cells
  enhancement of phage-mediated luciferase expression: 5-10 fold
COS cells; WT and Tpell phage, MOI 1×10^6, lactacystin 3 μM, bortezomib 10 nM, MG132 1 μM for 16 h
  effect on phage-mediated luciferase gene expression: strong trend

## CO/C1=C\C(C)=C\[C@@H](C)[C@@H](O)[C@@H](C)C/C(C)=C/C=C/[C@H](OC)[C@@H]([C@@H](C)[C@@H](O)[C@H](C)[C@@]2(O)C[C@@H](O)[C@H](C)[C@@H](C(C)C)O2)OC1=O [bafilomycin A1]
HEK 293 cells [2]
  effect on endosomal pH: sufficient to raise endosomal pH
HEK 293 cells [1]; Tpell phage, MOI 1×10^6, bafilomycin A for 24 h, luciferase at 48 h
  effect on phage-mediated gene transfer: no effect
COS cells; Tpell phage, MOI 1×10^6, bafilomycin A for 24 h
  effect on phage-mediated gene transfer: no effect

## CC(C)C[C@H](NC(=O)[C@H](Cc1ccccc1)NC(=O)c1cnccn1)B(O)O [bortezomib]
HEK 293 cells [1]; Tpell phage, MOI 1×10^6, bortezomib 10 nM for 24 h, luciferase at 48 h
  effect of extended exposure on phage-mediated gene transfer: robust, statistically significant, enhancement
HEK 293 cells [1]; Tpell phage, MOI 1×10^6, drugs for 24 h, luciferase at 48 h (FIG. 9)
  effect on phage-mediated luciferase gene expression, agents alone and combined: modest increase
HEK 293 cells [3]
  effect on plasmid-mediated luciferase expression: no effect
HEK 293 cells [4]
  nuclear accumulation of phage DNA (copies of lambda phage genomic DNA per cell): statistically significant increase
HEK 293 cells [5]
  cytotoxicity relative to the other proteasome inhibitors tested: least cytotoxic

## C[C@H]1CCC/C=C/[C@@H]2C[C@H](O)C[C@H]2[C@H](O)/C=C/C(=O)O1 [brefeldin A]
HEK 293 cells [1]; [7]
  effect on phage-mediated luciferase gene transfer: no effect
COS cells; Tpell phage
  effect on phage-mediated luciferase gene transfer: no effect

## CCN(CC)CCCC(C)Nc1ccnc2cc(Cl)ccc12 (stereo not shown) [chloroquine]
COS cells; Tpell phage
  effect on phage-mediated luciferase gene transfer: statistically significant enhancement

## C/C1=C/C(=O)O[C@@H]2C[C@@H](CC[C@H](C)/C=C\C=C\CC1)O[C@@](O)([C@@H]1CSC(=O)N1)C2 [latrunculin A]
[6]; latrunculin A 120 nM
  effect on efficiency of plasmid DNA expression: no effect
COS-7 cells
  effect on adenoviral gene transfer efficiency: no effect

## COC(=O)Nc1nc2ccc(C(=O)c3cccs3)cc2[nH]1 [nocodazole]
[6]
  increase in plasmid gene transfer efficiency: approx 50 fold

## COc1ccc2[nH]c([S+]([O-])Cc3ncc(C)c(OC)c3C)nc2c1 (stereo not shown) [omeprazole]
HEK 293 cells [1]; [7]
  effect on phage-mediated luciferase gene transfer: no effect
COS cells; Tpell phage
  effect on phage-mediated luciferase gene transfer: no effect

## CC(=O)O[C@H]1C(=O)[C@@]2(C)[C@H]([C@H](OC(=O)c3ccccc3)[C@]3(O)C[C@H](OC(=O)[C@H](O)[C@@H](NC(=O)c4ccccc4)c4ccccc4)C(C)=C1C3(C)C)[C@]1(OC(C)=O)CO[C@@H]1C[C@@H]2O [paclitaxel]
[6]
  increase in plasmid gene transfer efficiency: approx 50 fold
